The supplement of paper PMC10307832

How the values were obtained:
Test in all cases: relative viability (nuclei count vs DMSO), 5 days (fraction); higher = more cells survive
[1] = compound: CO[C@H]1C[C@@H]2CC[C@@H](C)[C@@](O)(O2)C(=O)C(=O)N2CCCC[C@H]2C(=O)O[C@H]([C@H](C)C[C@@H]2CC[C@@H](OCCO)[C@H](OC)C2)CC(=O)[C@H](C)/C=C(\C)[C@@H](O)[C@@H](OC)C(=O)[C@H](C)C[C@H](C)/C=C/C=C/C=C/1C [Everolimus] + CC(C)C[C@H](NC(=O)[C@H](Cc1ccccc1)NC(=O)c1cnccn1)B(O)O [Bortezomib] (partner 0.002 µM)
In short: (§1)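 Lung cancer cell lines were seeded in 1536-well plates and dosed by pin tool the next day, with either a single drug or a fixed anchor-drug dose combined with five library-drug doses (not always all listed) spaced in √10 steps. Five days later, one step fixed the cells and stained their nuclei (final 0.05% Triton X-100, 1% formaldehyde, 1 ug/ml Hoechst), and nuclei were counted on 4× images. Relative viability is the nuclei count in treated wells divided by the count in vehicle wells, and each value is the median of duplicate plates.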

[2] = compound: CO[C@H]1C[C@@H]2CC[C@@H](C)[C@@](O)(O2)C(=O)C(=O)N2CCCC[C@H]2C(=O)O[C@H]([C@H](C)C[C@@H]2CC[C@@H](OCCO)[C@H](OC)C2)CC(=O)[C@H](C)/C=C(\C)[C@@H](O)[C@@H](OC)C(=O)[C@H](C)C[C@H](C)/C=C/C=C/C=C/1C [Everolimus] + CC1(C)CCC(c2ccc(Cl)cc2)=C(CN2CCN(c3ccc(C(=O)NS(=O)(=O)c4ccc(N[C@H](CCN5CCOCC5)CSc5ccccc5)c(S(=O)(=O)C(F)(F)F)c4)cc3)CC2)C1 [Navitoclax] (partner 0.5 µM)
In short: as §1

[3] = compound: CO[C@H]1C[C@@H]2CC[C@@H](C)[C@@](O)(O2)C(=O)C(=O)N2CCCC[C@H]2C(=O)O[C@H]([C@H](C)C[C@@H]2CC[C@@H](OCCO)[C@H](OC)C2)CC(=O)[C@H](C)/C=C(\C)[C@@H](O)[C@@H](OC)C(=O)[C@H](C)C[C@H](C)/C=C/C=C/C=C/1C [Everolimus] + CCNC(=O)c1noc(-c2cc(C(C)C)c(O)cc2O)c1-c1ccc(CN2CCOCC2)cc1 [Luminespib] (partner 0.01 µM)
In short: as §1

[4] = compound: CO[C@H]1C[C@@H]2CC[C@@H](C)[C@@](O)(O2)C(=O)C(=O)N2CCCC[C@H]2C(=O)O[C@H]([C@H](C)C[C@@H]2CC[C@@H](OCCO)[C@H](OC)C2)CC(=O)[C@H](C)/C=C(\C)[C@@H](O)[C@@H](OC)C(=O)[C@H](C)C[C@H](C)/C=C/C=C/C=C/1C [Everolimus] + Cc1nc(Nc2ncc(C(=O)Nc3c(C)cccc3Cl)s2)cc(N2CCN(CCO)CC2)n1 [Dasatinib] (partner 0.075 µM)
In short: as §1

| Cell Line | relative viability ([1]; first compound 0.01 µM) | relative viability ([1]; first compound 0.03162 µM) | relative viability ([1]; first compound 0.1 µM) | relative viability ([1]; first compound 0.3162 µM) | relative viability ([1]; first compound 1 µM) | relative viability ([2]; first compound 0.01 µM) | relative viability ([2]; first compound 0.03162 µM) | relative viability ([2]; first compound 0.1 µM) | relative viability ([2]; first compound 0.3162 µM) | relative viability ([2]; first compound 1 µM) | relative viability ([3]; first compound 0.01 µM) | relative viability ([3]; first compound 0.03162 µM) | relative viability ([3]; first compound 0.1 µM) | relative viability ([3]; first compound 0.3162 µM) | relative viability ([3]; first compound 1 µM) | relative viability ([4]; first compound 0.01 µM) | relative viability ([4]; first compound 0.03162 µM) | relative viability ([4]; first compound 0.1 µM) | relative viability ([4]; first compound 0.3162 µM) | relative viability ([4]; first compound 1 µM) |
| --- | --- | --- | --- | --- | --- | --- | --- | --- | --- | --- | --- | --- | --- | --- | --- | --- | --- | --- | --- | --- |
| HCC-44 | 0.978 | 0.958 | 0.937 | 1.08 | 0.858 | 0.941 | 0.88 | 0.819 | 0.904 | 0.903 | 1.02 | 0.851 | 1.05 | 0.938 | 1.56 |  |  |  |  |  |
| HCC-78 | 0.428 | 0.375 | 0.384 | 0.371 | 0.314 | 0.853 | 0.421 | 0.424 | 0.589 | 0.455 |  |  |  |  |  | 0.328 | 0.291 | 0.248 | 0.263 | 0.343 |
| HCC-366 | 1.02 | 1.07 | 0.983 | 0.878 | 0.772 | 0.859 | 0.823 | 0.871 | 0.91 | 0.511 |  |  |  |  |  | 0.459 | 0.593 | 0.477 | 0.46 | 0.354 |
| HCC-827 | 0.995 | 1.19 | 1.07 | 1.16 | 1.09 | 1.02 | 1.07 | 0.99 | 1.04 | 0.987 | 0.346 | 0.33 | 0.204 | 0.203 | 0.199 | 0.221 | 0.331 | 0.2 | 0.168 | 0.17 |
| IA-LM | 0.209 | 0.255 | 0.305 | 0.439 | 0.405 | 0.314 | 0.317 | 0.395 | 0.389 | 0.302 |  |  |  |  |  |  |  |  |  |  |
| LCLC-103H | 1.06 | 1.01 | 1.02 | 1.07 | 0.749 |  |  |  |  |  | 0.839 | 0.819 | 0.689 | 0.741 | 0.733 | 0.404 | 0.305 | 0.35 | 0.319 | 0.322 |
| LK-2 |  |  |  |  |  | 0.851 | 0.557 | 0.408 | 0.508 | 0.461 | 0.179 |  | 0.171 | 0.177 | 0.189 | 0.231 |  | 0.239 | 0.209 | 0.306 |
| NCI-H358 |  |  |  |  |  |  |  |  |  |  | 0.325 | 0.237 | 0.196 | 0.214 | 0.206 | 0.115 | 0.138 | 0.133 | 0.0942 | 0.114 |
| NCI-H522 |  |  |  |  |  |  |  |  |  |  | 0.841 | 0.631 | 0.767 | 0.738 | 0.811 | 0.776 | 0.624 | 0.629 | 0.71 | 0.724 |
| NCI-H650 | 0.649 |  | 0.556 | 0.571 | 0.458 |  |  |  |  |  | 0.858 |  | 0.511 | 0.609 | 0.345 | 0.363 |  | 0.357 | 0.361 | 0.307 |
